Results on three compounds are retold here after patent publication US20100063160A1, “POLYMORPHS OF O-DESMETHYL VENLAFAXINE SUCCINATE” (priority 2006, published 2010).

Series [1] can be described thus: relative stability of ODV succinate polymorphic forms. It counts as physicochemical. Conditions: compared with the other forms of ODV succinate.
The conditions of series [2]: in vivo; cited from earlier work.
The conditions of series [3]: cited from earlier work.
The conditions of series [4]: cited from earlier work. The source holds these as a separate data set.
For series [5] the following is noted: in vivo, po; cited from earlier work.
A further series concerns norepinephrine uptake. To be noted: cited from earlier work.
In the next series the test system is serotonin uptake. To be noted: cited from earlier work.

`CN(C)CC(c1ccc(O)cc1)C1(O)CCCCC1.O=C(O)CCC(=O)O` (centres unmarked) [Form II of ODV succinate, O-desmethyl venlafaxine (ODV) succinate monohydrate]: in series [1], the “stability of polymorphic form” value is recorded as “most stable form”.

As to `CN(C)CC(c1ccc(O)cc1)C1(O)CCCCC1.O=C(O)CCC(=O)O` (centres unmarked) [ODV succinate, O-desmethyl venlafaxine (ODV) succinate], in series [2], the “absorption in the gastrointestinal tract” value is given as “well absorbed” and the bioavailability result was “high”. Besides, the solubility entry in series [3] is recorded as “high”. For the same compound, in series [4], the permeability entry is “high”. Besides, in series [5], the “incidence of nausea, vomiting, diarrhea, abdominal pain, headache, vasovagal malaise and/or trismus” value is “lower incidence”.

For `CN(C)CC(c1ccc(O)cc1)C1(O)CCCCC1` (centres unmarked) [ODV, 1-[2-(dimethylamino)-1-(4-hydroxyphenyl)ethyl]cyclohexanol], the norepinephrine uptake inhibition entry in the series on norepinephrine uptake is reported as “inhibit”. The serotonin uptake inhibition result in the series on serotonin uptake was “inhibit”.
